Results on five compounds are retold here after US20030232063A1, “Aminosulfonic acid compounds for promoting desquamation of the skin” (SOCIETE L'OREAL S.A., priority 2000, published 2003).

The first assay deals with corneodesmosine. Nature of the assay: Degradation of corneodesmosines in acetonic powders of stratum corneum (immunoblotting with antibody G36-19, chemiluminescence). Type of assay: biochemical, human. The conditions noted are these: aqueous solution containing 2% of active agent, pH 8.0, 17 h incubation at 30° C., 33 and 46 kD bands, versus control without active agent.
Procedure: Method for evaluating desquamation by measuring the degradation of corneodesmosines The ability of aminosulfonic derivatives of formula (I) according to the invention to promote desquamation by degradation of corneodesmosines is studied in this example. […] It is studied by immunoblotting after separation by electrophoresis and transfer onto a membrane. […] The nylon-varnish strips associated with the corneocytes are immersed in 1 ml/cm^2 of acetone in order to detach the corneocytes. The mixture is filtered and then rinsed three times with the same volume of acetone in order to remove all trace of varnish. Finally, the mixture is dried under vacuum: acetonic powders of stratum corneum are thus obtained. The acetonic powders are divided into 1 mg aliquots. 100 μl of the aqueous solutions containing 2% of active agent adjusted to pH 8.0 are added. […] Two incubation times are studied: t=0 and t=17 h. In the latter case, the incubation takes place at 30° C. with stirring. After incubation, the mixtures are centrifuged for 10 minutes at 10 000×g. The supernatant is removed and replaced with 100 μl of 0.0625 M Tris/HCl pH 6.8 Laemmli buffer, 2% SDS, 200 mM DTT, 10% glycerol, which allows the proteins to be extracted. The mixture is boiled for 10 minutes at 100° C. and then ground in a Potter mill. The mixture is centrifuged for 10 minutes at 10 000×g and the supernatant is then collected. It contains the corneodesmosomal proteins. The total proteins are assayed according to the Bradford method (Biorad kit). This allows an adjustment to 0.6 mg/ml of the samples and a real comparison of the treatments. The samples and also a Rainbow (Amersham Pharmacia Biotech) low molecular weight standard at 1⁄3 are separated by electrophoresis on gel containing 12% acrylamide for 30 minutes at 100 V and then for 1 hour at 200 V. After the electrophoresis, the proteins are transferred onto an Immobilon-P membrane (Millipore) for 3 hours at 60 V. The membrane is then incubated for twice 15 minutes in TBS-TL buffer: 25 mM Tris, 0.15M NaCi pH 7.2, 0.05% Tween 20, 0.5% skimmed milk powder, in order to block the non-specific sites. Incubation with the antibody [MUT]-19 at 1/12500 is performed overnight at 4° C. After two rinses of 5 minutes in TBS-TL buffer, the membrane is incubated with a goat anti-mouse IG(H+L) antibody peroxidase conjugate (Biorad) at 1/4000 for 1 hour 30 minutes at ambient temperature. After several rinses of 5 minutes in TBS-TL buffer and then TBS buffer (without milk or Tween), the membrane is incubated for 1 minute in 10 ml of ECL reagent (Amersham Pharmacia Biotech). The chemiluminescence of the corneodesmosine bands is measured with the FluorS Multimager (Biorad). The 33 and 46 kD bands are quantified with the Quantity-one software (Biorad). […] This control takes into account the natural degradation of the corneodesmosines which takes place during the incubation.
Regarding `O=S(=O)(O)CCN1CCN(CCO)CC1` [4-(2-hydroxyethyl)piperazine-1-ethanesulfonic acid], the “Percentage increase in the degradation of corneodesmosine” value (shortened to “Percentage increase in the degradation”) was found to be 65%.

As for `NCC(=O)O` [Glycine, reference compound], the “Percentage increase in the degradation” value was determined as 51%.

Consider `O=S(=O)(O)CCN1CCN(CCS(=O)(=O)O)CC1` [piperazine-1,4-bis(2-ethanesulfonic acid)], for which the “Percentage increase in the degradation” value amounted to 65%.

With `O=S(=O)(O)CC(O)CN1CCN(CC(O)CS(=O)(=O)O)CC1` (stereo not drawn) [piperazine-1,4-bis(2-hydroxypropanesulfonic acid)], the “Percentage increase in the degradation” value is recorded as 63%.

On to `O=S(=O)(O)CCCN1CCOCC1` [3-Morpholinopropanesulfonic acid, 3-morpholinopropanesulfonic acid], for which the “Percentage increase in the degradation” value turned out to be 39%.

In a further assay the test system is desmoglein (corneodesmosomal protein).
Experiment: not given
The conditions noted are these: shown in EP-A2-0,852,949 (Shiseido); cited from earlier work.
With `NCC(=O)O` [Glycine, reference compound], the “Effect on the degradation of desmoglein (in words)” value is given as “promotes the degradation of desmoglein”.
